# Results taken from US8877778B2, “Benzofurane compounds” (Hoffmann-La Roche Inc., priority 2010, dated 2014).
# How the values were obtained:
# [1] = biological target: human D2 receptor (Homo sapiens (Human), UniProt P14416); assay: Radioligand binding ([3H]-spiperone) to cloned receptors expressed in HEK-293 EBNA cells; conditions: HEK293 EBNA cell membranes expressing human D2
# Description: (§1) HEK293 EBNA cells were transiently transfected with expression plasmids encoding for the human D2 or D3 or for the human 5-HT2A receptor, respectively. The cells were harvested 48 h post-transfection, washed three times with cold PBS and stored at −80° C. prior to use. The pellet was suspended in cold 50 mM Tris-HCl buffer comprising 10 mM EDTA (pH 7.4) and was homogenized with a Polytron (Kinematica AG, Basel, Switzerland) for 20-30 sec at 12.000 rpm. After centrifugation at 48.000×g for 30 min at 4° C., the pellet was resuspended in cold 10 mM Tris-HCl buffer comprising 0.1 mM EDTA (pH 7.4), homogenized, and centrifuged as above. This pellet was further resuspended in a smaller volume of ice cold 10 mM Tris-HCl buffer comprising 0.1 mM EDTA (pH 7.4) and homogenized with a Polytron for 20-30 sec at 12.000 rpm. The protein content of this homogenate was determined with the Bio-Rad (Bradford) Protein Assay (Biorad Laboratories GmbH, München, Germany) according to the instructions of the manufacturer using gamma globulin as the standard. This homogenate was stored at −80° C. in aliquots and thawed immediately prior to use.
# (§2) Aliquots of membrane preparations were thawed at RT, resupended in assay buffer (D2, D3: 50 mM Tris-HCl, 120 mM NaCl, 5 mM MgCl2, 1 mM EDTA, 5 mM KCl, 1.5 mM CaCl2, pH=7.4; 5-HT2A: 50 mM Tris-HCl, 10 mM MgCl2, 1 mM EGTA, pH=7.4), homogenized with a Polytron for 20-30 sec at 12.000 rpm and adjusted to a final concentration of approximately 7.5 μg protein/well (D2, D3) and 15 μg protein/well (5-HT2A), respectively.
# (§3) The binding affinity (Ki) of the compounds was determined using radioligand binding. Membranes were incubated in a total volume of 200 μl with a fixed concentration of radioligand (final concentration approximately 0.7 nM [^3H]-spiperone for D2, 0.5 nM [^3H]-spiperone for D3, and 1.1 nM [^3H]-ketanserin for 5-HT2A) and ten concentrations of test compound in ranging between 10 μM-0.1 nM for 1 h at RT. At the end of the incubation, the reaction mixtures were filtered on to unifilter 96-well white microplates with bonded GF/C filters (Packard BioScience, Zürich, Switzerland; preincubated for 1 h in 0.1% polyethylenimine (PEI) in assay buffer) with a Filtermate 196 harvester (Packard BioScience) and washed 3 times with cold assay buffer. The nonspecific binding was determined with equally composed reaction mixtures in the presence of 10 μM unlabelled spiperone. Per well 45 μl of Microscint 40 (Perkin Elmer, Schwerzenbach, Switzerland) was added, plates for sealed, shaken for 20 min and counted for 3 min on a Topcount Microplate Scintillation Counter (Can berra Packard SA, Zürich, Switzerland) with quenching correction.
# (§4) The CPM value for each duplicate of a concentration of competing compound was averaged (y1), then the % specific binding was calculated according to the equation (((y1−non-specific)/(total binding−non-specific))×100). Graphs were plotted with the % specific binding using XLfit, a curve fitting program that iteratively plots the data using Levenberg-Marquardt algorithm. The single site competition analysis equation used was y=A+((B−A)/(1+((x/C)D))), where y is the % specific binding, A is the minimum y, B is the maximum y, C is the IC50, x is the log 10 of the concentration of the competing compound and D is the slope of the curve (the Hill Coefficient). […] The affinity constant (Ki) was calculated using the Cheng-Prusoff equation Ki=(IC50/1+([L]/Kd), where [L] is the concentration of radioligand and Kd is the dissociation constant of the radioligand at the receptor as determined by the saturation isotherm.
# [2] = biological target: human D3 receptor (Homo sapiens (Human), UniProt P35462); assay: as above; conditions: HEK293 EBNA cell membranes expressing human D3
# Description: as §1, §2, §3, §4
# [3] = biological target: human 5-HT2A receptor (Homo sapiens (Human), UniProt P28223); assay: Radioligand binding ([3H]-ketanserin) to cloned receptors expressed in HEK-293 EBNA cells; conditions: HEK293 EBNA cell membranes expressing human 5-HT2A
# Description: as §1, §2, §3, §4
# Sequence of human 5-HT2A receptor (P28223 whole entry): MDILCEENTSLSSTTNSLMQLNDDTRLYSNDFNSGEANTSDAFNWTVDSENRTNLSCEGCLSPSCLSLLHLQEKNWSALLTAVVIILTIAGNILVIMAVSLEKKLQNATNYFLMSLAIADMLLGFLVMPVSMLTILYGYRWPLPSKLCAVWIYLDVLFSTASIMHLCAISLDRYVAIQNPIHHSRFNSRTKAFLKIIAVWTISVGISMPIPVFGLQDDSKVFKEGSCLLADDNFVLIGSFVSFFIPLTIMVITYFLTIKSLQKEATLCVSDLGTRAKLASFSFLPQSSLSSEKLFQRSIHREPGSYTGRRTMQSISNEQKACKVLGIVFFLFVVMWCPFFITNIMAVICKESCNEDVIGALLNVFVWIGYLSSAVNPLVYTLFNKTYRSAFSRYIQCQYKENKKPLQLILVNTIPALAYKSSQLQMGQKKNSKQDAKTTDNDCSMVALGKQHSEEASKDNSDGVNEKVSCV
# Sequence of human D3 receptor (P35462 whole entry): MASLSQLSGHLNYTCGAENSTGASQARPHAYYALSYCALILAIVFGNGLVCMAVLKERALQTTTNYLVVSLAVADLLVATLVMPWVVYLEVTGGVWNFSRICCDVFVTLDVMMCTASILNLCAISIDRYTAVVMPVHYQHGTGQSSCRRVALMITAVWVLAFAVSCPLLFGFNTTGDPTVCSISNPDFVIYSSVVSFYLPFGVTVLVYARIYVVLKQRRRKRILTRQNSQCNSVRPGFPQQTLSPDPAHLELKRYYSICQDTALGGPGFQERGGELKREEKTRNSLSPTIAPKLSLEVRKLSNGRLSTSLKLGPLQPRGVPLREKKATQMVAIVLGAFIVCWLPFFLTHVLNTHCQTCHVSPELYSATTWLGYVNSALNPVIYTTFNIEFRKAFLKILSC
# Sequence of human D2 receptor (P14416 whole entry): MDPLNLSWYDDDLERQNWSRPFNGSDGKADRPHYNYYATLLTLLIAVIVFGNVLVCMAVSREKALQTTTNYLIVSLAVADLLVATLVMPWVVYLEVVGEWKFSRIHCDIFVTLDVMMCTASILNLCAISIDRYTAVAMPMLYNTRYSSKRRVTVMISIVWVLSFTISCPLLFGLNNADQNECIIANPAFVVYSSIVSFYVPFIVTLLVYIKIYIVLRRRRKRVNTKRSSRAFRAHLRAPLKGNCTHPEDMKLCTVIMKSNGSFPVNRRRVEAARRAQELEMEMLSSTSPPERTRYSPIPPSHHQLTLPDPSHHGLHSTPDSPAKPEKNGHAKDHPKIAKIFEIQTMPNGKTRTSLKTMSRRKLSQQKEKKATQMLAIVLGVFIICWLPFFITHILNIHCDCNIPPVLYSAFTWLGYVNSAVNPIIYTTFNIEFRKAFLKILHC
SMILES,Ki [1] [nM],Ki [2] [nM],Ki [3] [nM],melting point [°C]
"O=C(N[C@H]1CC[C@H](CCN2CCC(c3cccc4c3CCO4)CC2)CC1)c1ccc(F)cc1 [Example 35, trans-N-(4-{2-[4-(2,3-Dihydro-benzofuran-4-yl)-piperidin-1-yl]-ethyl}-cyclohexyl)-4-fluoro-benzamide]",73.7,4.9,14.2,213
"O=C(C[C@@H](O)C(F)(F)F)N[C@H]1CC[C@H](CCN2CCC(c3cccc4c3CCO4)CC2)CC1 [Example 36, trans-(R)—N-(4-{2-[4-(2,3-Dihydro-benzofuran-4-yl)-piperidin-1-yl]-ethyl}-cyclohexyl)-4,4,4-trifluoro-3-hydroxy-butyramide]",239,6.5,53.4,189
"CC(C)(O)C(=O)N[C@H]1CC[C@H](CCN2CCC(c3cccc4c3CCO4)CC2)CC1 [Example 38, trans-N-(4-{2-[4-(2,3-Dihydro-benzofuran-4-yl)-piperidin-1-yl]-ethyl}-cyclohexyl)-2-hydroxy-2-methyl-propionamide]",495,34.9,8,163
"O=C(N[C@H]1CC[C@H](CCN2CCC(c3cccc4c3CCO4)CC2)CC1)c1ccnc2ccccc12 [Example 40, Quinoline-4-carboxylic acid trans-(4-{2-[4-(2,3-dihydro-benzofuran-4-yl)-piperidin-1-yl]-ethyl}-cyclohexyl)-amide]",563,6.1,24.2,211
"Cc1cc(C(=O)N[C@H]2CC[C@H](CCN3CCC(c4cccc5c4CCO5)CC3)CC2)on1 [Example 41, 3-Methyl-isoxazole-5-carboxylic acid trans-(4-{2-[4-(2,3-dihydro-benzofuran-4-yl)-piperidin-1-yl]-ethyl}-cyclohexyl)-amide]",124,10.8,36.4,215
"Cc1ccc(C(=O)N[C@H]2CC[C@H](CCN3CCC(c4cccc5c4CCO5)CC3)CC2)cn1 [Example 42, trans-N-(4-{2-[4-(2,3-Dihydro-benzofuran-4-yl)-piperidin-1-yl]-ethyl}-cyclohexyl)-6-methyl-nicotinamide]",151,10.2,25.4,202
"O=C(N[C@H]1CC[C@H](CCN2CCC(c3cccc4c3CCO4)CC2)CC1)C(F)(F)F [Example 43, trans-N-(4-{2-[4-(2,3-Dihydro-benzofuran-4-yl)-piperidin-1-yl]-ethyl}-cyclohexyl)-2,2,2-trifluoro-acetamide]",289,21.9,55.2,173
"CN1CCN(c2ccc(C(=O)N[C@H]3CC[C@H](CCN4CCC(c5cccc6c5CCO6)CC4)CC3)cc2)CC1 [Example 44, trans-N-(4-{2-[4-(2,3-Dihydro-benzofuran-4-yl)-piperidin-1-yl]-ethyl}-cyclohexyl)-4-(4-methyl-piperazin-1-yl)-benzamide]",147,6,8.4,241
"N#Cc1ccc(C(=O)N[C@H]2CC[C@H](CCN3CCC(c4cccc5c4CCO5)CC3)CC2)cc1 [Example 45, trans-4-Cyano-N-(4-{2-[4-(2,3-dihydro-benzofuran-4-yl)-piperidin-1-yl]-ethyl}-cyclohexyl)-benzamide]",192,7.9,22.2,230
"O=C(N[C@H]1CC[C@H](CCN2CCC(c3cccc4c3CCO4)CC2)CC1)c1ccc(N2CCOCC2)nc1 [Example 46, trans-N-(4-{2-[4-(2,3-Dihydro-benzofuran-4-yl)-piperidin-1-yl]-ethyl}-cyclohexyl)-6-morpholin-4-yl-nicotinamide]",920,16.3,27.6,228
"CS(=O)(=O)N[C@H]1CC[C@H](CCN2CCC(c3cccc4c3CCO4)CC2)CC1 [Example 47, trans-N-(4-{2-[4-(2,3-Dihydro-benzofuran-4-yl)-piperidin-1-yl]-ethyl}-cyclohexyl)-methanesulfonamide]",328,10.1,35.2,152
"CCS(=O)(=O)N[C@H]1CC[C@H](CCN2CCC(c3cccc4c3CCO4)CC2)CC1 [Example 48, Ethanesulfonic acid trans-(4-{2-[4-(2,3-dihydro-benzofuran-4-yl)-piperidin-1-yl]-ethyl}-cyclohexyl)-amide]",333,11.2,34.8,131
"O=S(=O)(N[C@H]1CC[C@H](CCN2CCC(c3cccc4c3CCO4)CC2)CC1)c1ccccc1 [Example 49, trans-N-(4-{2-[4-(2,3-Dihydro-benzofuran-4-yl)-piperidin-1-yl]-ethyl}-cyclohexyl)-benzenesulfonamide]",138,5.1,79.7,130
"O=S(=O)(N[C@H]1CC[C@H](CCN2CCC(c3cccc4c3CCO4)CC2)CC1)c1ccc(F)cc1 [Example 50, trans-N-(4-{2-[4-(2,3-Dihydro-benzofuran-4-yl)-piperidin-1-yl]-ethyl}-cyclohexyl)-4-fluoro-benzenesulfonamide]",105,4.1,86.8,134
"CN(C)S(=O)(=O)N[C@H]1CC[C@H](CCN2CCC(c3cccc4c3CCO4)CC2)CC1 [Example 51, N′-(trans-4-{2-[4-(2,3-Dihydro-benzofuran-4-yl)-piperidin-1-yl]-ethyl}-cyclohexyl)-N,N-dimethylsulfamide]",251,9.9,19.5,122
"N#CCC(=O)N[C@H]1CC[C@H](CCN2CCC(c3cccc4c3CCO4)CC2)CC1 [Example 55, trans-2-Cyano-N-(4-{2-[4-(2,3-dihydro-benzofuran-4-yl)-piperidin-1-yl]-ethyl}-cyclohexyl)-acetamide]",140,3.6,38.7,194
"O=C(N[C@H]1CC[C@H](CCN2CCC(c3cccc4c3CCO4)CC2)CC1)c1ccc(N2CCCCC2)cc1 [Example 56, trans-N-(4-{2-[4-(2,3-Dihydro-benzofuran-4-yl)-piperidin-1-yl]-ethyl}-cyclohexyl)-4-piperidin-1-yl-benzamide]",2270,72.5,137,248
"O=C(N[C@H]1CC[C@H](CCN2CCC(c3cccc4c3CCO4)CC2)CC1)c1ccc(C(F)(F)F)cc1 [Example 57, trans-N-(4-{2-[4-(2,3-Dihydro-benzofuran-4-yl)-piperidin-1-yl]-ethyl}-cyclohexyl)-4-trifluoromethyl-benzamide]",1460,66.1,135,228
"CC(C)(C)C(=O)N[C@H]1CC[C@H](CCN2CCC(c3cccc4c3CCO4)CC2)CC1 [Example 58, trans-N-(4-{2-[4-(2,3-Dihydro-benzofuran-4-yl)-piperidin-1-yl]ethyl}-cyclohexyl)-2,2-dimethyl-propionamide]",378,65.1,50.6,192
